Data from patent publication US8735406B2, “8-oxodihydropurine derivative” (Dainippon Sumitomo Pharma Co., Ltd., priority 2009, dated 2014).
pIC50: −log10 of the molar value. Read-outs that look alike come from different tables or passages of the source.

Molecular target: T1, FAAH (Rattus norvegicus, UniProt P97612)
T1 construct: Preparation of Rat Brain Membranes Preparations (FAAH Enzyme Solution); from tissue; host or cells: rat cerebrum (brain membrane preparation)
T1 sequence (P97612 1-579): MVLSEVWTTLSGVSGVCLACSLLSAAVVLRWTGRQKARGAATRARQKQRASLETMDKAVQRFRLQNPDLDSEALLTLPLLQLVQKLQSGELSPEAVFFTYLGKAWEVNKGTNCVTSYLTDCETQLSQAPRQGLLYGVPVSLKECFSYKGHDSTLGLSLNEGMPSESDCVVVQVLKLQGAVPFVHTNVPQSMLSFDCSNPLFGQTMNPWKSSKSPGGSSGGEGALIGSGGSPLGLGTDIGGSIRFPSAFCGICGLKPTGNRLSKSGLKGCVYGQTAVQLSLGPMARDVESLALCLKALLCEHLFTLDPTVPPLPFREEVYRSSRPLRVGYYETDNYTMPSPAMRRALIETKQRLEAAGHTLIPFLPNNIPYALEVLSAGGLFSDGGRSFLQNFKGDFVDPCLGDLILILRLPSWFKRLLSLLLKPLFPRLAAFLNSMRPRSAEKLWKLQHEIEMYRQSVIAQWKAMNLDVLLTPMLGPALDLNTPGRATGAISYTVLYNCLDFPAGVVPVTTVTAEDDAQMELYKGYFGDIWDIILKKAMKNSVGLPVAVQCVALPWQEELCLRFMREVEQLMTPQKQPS
Test: Determination of FAAH inhibitory activity in rat (rat brain membrane preparations, [3H]-anandamide hydrolysis)
Assay type: biochemical
Conditions: rat brain membrane preparations; for pIC50: read-out: FAAH Inhibition IC50
Outline: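 Rat cerebrum membranes (100 μg/mL protein) preincubated 10 min at 37 °C with compound (1% DMSO) in pH 7.6 Tris buffer with 1.5% BSA. Substrate 2 nM [3H]-anandamide plus 2 μM anandamide added for 10 min at 37 °C. [3H]-ethanolamine in the aqueous phase after chloroform/methanol extraction was scintillation counted; IC50 over 0.1 nM–1 μM.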

[1] = at 100 nM, read-out: FAAH Inhibition Inhibition Rate at 100 nM
[2] = 100 nM test substance, read-out: FAAH Inhibition, Inhibition Rate at 100 nM

Structure (SMILES)	inhibition at 0.1 µM [1] [%]	pIC50	inhibition at 0.1 µM [2] [%]	pIC50 (test substance 0.1 nM to 1 μM)
Cn1c(=O)n(C(=O)N2CCC2)c2nc(CCc3cccc(OCC(F)(F)F)c3)ncc21 [Example 612, 9-(Azetidin-1-ylcarbonyl)-7-methyl-2-{2-[3-(2,2,2-trifluoroethoxy)phenyl]ethyl}-7,9-dihydro-8H-purine-8-one]	96	8.05	–	–
CC(c1ccccc1)c1ncc2c(n1)n(C)c(=O)n2C(=O)N1CCCC1 (stereo not shown) [Example 273]	–	–	89	7.33
Cn1c(=O)n(C(=O)N2CCN(c3ccc(C(F)(F)F)cn3)CC2)c2cnc(-c3ccccc3)nc21 [Example 50, 9-Methyl-2-phenyl-7-({4-[5-(trifluoromethyl)-pyridin-2-yl]piperazin-1-yl}carbonyl)-7,9-dihydro-8H-purine-8-one]	–	–	98	8.05
Cn1c(=O)n(C(=O)N2CCCC2)c2nc(-c3ccncc3)ncc21 [Example 252]	–	–	40	< 7.00
Cn1c(=O)n(C(=O)N2CCCC2)c2nc(-c3cccc(C(F)(F)F)c3)ncc21 [Example 234, 7-Methyl-9-(pyrrolidin-1-ylcarbonyl)-2-[3-(trifluoromethyl)phenyl]-7,9-dihydro-8H-purine-8-one]	–	–	100	8.05
Cc1ccc(Cc2ncc3c(n2)n(C(=O)N2CCCC2)c(=O)n3C)cc1 [Example 289, 7-Methyl-2-(4-methylbenzyl)-9-(pyrrolidin-1-ylcarbonyl)-7,9-dihydro-8H-purine-8-one]	–	–	96	7.82
COCCCc1ncc2c(n1)n(C)c(=O)n2C(=O)N1CC(c2ccc(F)cc2)C1 [Example 381]	–	–	84	8.10
COc1cccc(-c2ncc3c(n2)n(C)c(=O)n3C(=O)N(C)CCc2ccc(Cl)c(Cl)c2)c1 [Example 105, N-[2-(3,4-Dichlorophenyl)ethyl]-2-(3-methoxyphenyl)-N,9-dimethyl-8-oxo-8,9-dihydro-7H-purine-7-carboxamide]	–	–	108	9.00
Cn1c(=O)n(C(=O)N2CCCC2)c2cnc(/C=C/c3ccccc3)nc21 [Example 1, 9-methyl-2-[(E)-2-phenylethenyl]-7-(pyrrolidin-1-ylcarbonyl)-7,9-dihydro-8H-purine-8-one]	–	–	100	8.22
COCCOCc1ncc2c(n1)n(C)c(=O)n2C(=O)N1CC(c2cccc(F)c2)C1 [compound 473]	–	–	113	8.10
COc1cccc(-c2ncc3c(n2)n(C)c(=O)n3C(=O)N(C)Cc2ccc(OC(F)(F)F)cc2)c1 [Example 83, 2-(3-Methoxyphenyl)-N,9-dimethyl-8-oxo-N-[4-(trifluoromethoxy)benzyl]-8,9-dihydro-7H-purine-7-carboxamide]	–	–	93	7.60
Cn1c(=O)n(C(=O)N2CCC2)c2cnc(COc3ccccc3F)nc21 [compound 408]	–	–	69	7.00
Cn1c(=O)n(C(=O)N2CCC2)c2nc(CCCOc3ccccc3)ncc21 [Example 400]	–	–	88	7.01
Cc1ccccc1-c1ncc2c(n1)n(C)c(=O)n2C(=O)N1CCCC1 [compound 169]	–	–	78	7.39
CCN(C)C(=O)n1c(=O)n(C)c2nc(-c3cccnc3)ncc21 [Example 219, N-Ethyl-N,9-dimethyl-8-oxo-2-(pyridin-3-yl)-8,9-dihydro-7H-purine-7-carboxamide]	–	–	96	8.05
CCOc1ccc(N2CCN(C(=O)n3c(=O)n(C)c4nc(-c5cccnc5)ncc43)CC2)cc1 [Example 144, 7-{[4-(4-Ethoxyphenyl)piperazin-1-yl]carbonyl}-9-methyl-2-(pyridin-3-yl)-7,9-dihydro-8H-purine-8-one]	–	–	100	> 9.00
COc1cccc(-c2ncc3c(n2)n(C)c(=O)n3C(=O)N2CCN(c3cccc(C)c3)CC2)c1 [Example 139, 2-(3-Methoxyphenyl)-9-methyl-7-{[4-(3-methylphenyl)piperazin-1-yl]carbonyl}-7,9-dihydro-8H-purine-8-one]	–	–	99	8.22
COCCc1ncc2c(n1)n(C)c(=O)n2C(=O)N1CC(c2ccccc2)C1 [compound 389]	–	–	105	8.05
Cn1c(=O)n(C(=O)N2CCC2)c2cnc(Cc3ccccc3F)nc21 [compound 374]	–	–	85	7.92

Structure (SMILES)	inhibition at 0.1 µM [1] [%]	pIC50	inhibition at 0.1 µM [2] [%]	pIC50 (test substance 0.1 nM to 1 μM)
Cn1c(=O)n(C(=O)N2CCCCCC2)c2cnc(-c3ccccc3)nc21 [Example 41]	–	–	33	< 7.00
CCOc1cccc(CCc2ncc3c(n2)n(C(=O)N2CCC2)c(=O)n3C)c1 [compound 604]	92	7.82	–	–
Cn1c(=O)n(C(=O)N2CCN(c3nccs3)CC2)c2cnc(-c3ccccc3)nc21 [Example 55, 9-Methyl-2-phenyl-7-{[4-(1,3-thiazol-2-yl)piperazin-1-yl]carbonyl}-7,9-dihydro-8H-purine-8-one]	–	–	94	7.60
Cn1c(=O)n(C(=O)N2CCCC2)c2nc(/C=C/c3cccc(F)c3)ncc21 [Example 246, 2-[(E)-2-(3-Fluorophenyl)ethenyl]-7-methyl-9-(pyrrolidin-1-ylcarbonyl)-7,9-dihydro-8H-purine-8-one]	–	–	98	7.64
Cn1c(=O)n(C(=O)N2CCCC2)c2cnc(-c3ccc(Cl)cc3)nc21 [Example 18]	–	–	99	8.15
COCc1ncc2c(n1)n(C)c(=O)n2C(=O)N1CC[C@@H](Oc2ccccc2)C1 [Example 488, 2-(Methoxymethyl)-9-methyl-7-{[(3R)-3-phenoxypyrrolidin-1-yl]carbonyl}-7,9-dihydro-8H-purine-8-one]	–	–	74	7.37
CN(C)C(=O)n1c(=O)n(C)c2cnc(CCc3ccccc3C(F)F)nc21 [compound 546]	–	–	86	7.55
Cn1c(=O)n(C(=O)N2CCCC2)c2nc(-c3cccnc3)ncc21 [Example 248]	–	–	33	< 7.00
Cn1c(=O)n(C(=O)N2CCCC2)c2cnc(-c3cccc(F)c3)nc21 [Example 167, 2-(3-Fluorophenyl)-9-methyl-7-(pyrrolidin-1-ylcarbonyl)-7,9-dihydro-8H-purine-8-one]	–	–	101	8.22
Cn1c(=O)n(C(=O)N2CCCC2)c2nc(-c3ccccc3F)ncc21 [compound 225]	–	–	57	7.05
COc1cccc(-c2ncc3c(n2)n(C)c(=O)n3C(=O)N2CCCC2)c1 [Example 173, 2-(3-Methoxyphenyl)-9-methyl-7-(pyrrolidin-1-ylcarbonyl)-7,9-dihydro-8H-purine-8-one]	–	–	101	8.15
COc1cccc(-c2ncc3c(n2)n(C)c(=O)n3C(=O)N(C)Cc2ccc(F)cc2)c1 [Example 71, N-(4-Fluorobenzyl)-2-(3-methoxyphenyl)-N,9-dimethyl-8-oxo-8,9-dihydro-7H-purine-7-carboxamide]	–	–	103	8.05
Cn1c(=O)n(C(=O)N2CCCCC2)c2cnc(-c3ccccc3)nc21 [Example 24, 9-Methyl-2-phenyl-7-(piperidin-1-ylcarbonyl)-7,9-dihydro-8H-purine-8-one]	–	–	97	7.54
CN(C)C(=O)n1c(=O)n(C)c2cnc(CCc3ccc(OC(F)F)cc3)nc21 [Example 493, 2-{2-[4-(difluoromethoxy)phenyl]ethyl}-N,N,7-trimethyl-8-oxo-7,8-dihydro-9H-purine-9-carboxamide]	–	–	79	7.57
Cn1c(=O)n(C(=O)N2CCC2)c2cnc(COc3cccc(C(F)(F)F)c3)nc21 [compound 410]	–	–	55	7.00
CN(C)C(=O)n1c(=O)n(C)c2cnc(Cc3cccc(C(F)(F)F)c3)nc21 [Example 654, N,N,7-Trimethyl-8-oxo-2-[3-(trifluoromethyl)benzyl]-7,8-dihydro-9H-purine-9-carboxamide]	110	7.96	–	–
Cn1c(=O)n(C(=O)N2CCN(c3ccccc3Cl)CC2)c2cnc(-c3ccccc3)nc21 [Example 127, 7-{[4-(2-Chlorophenyl)piperazin-1-yl]carbonyl}-9-methyl-2-phenyl-7,9-dihydro-8H-purine-8-one]	–	–	94	7.30
COc1ccccc1N1CCN(C(=O)n2c(=O)n(C)c3nc(-c4ccccc4)ncc32)CC1 [Example 122, 7-{[4-(2-Methoxyphenyl)piperazin-1-yl]carbonyl}-9-methyl-2-phenyl-7,9-dihydro-8H-purine-8-one]	–	–	97	7.46
CCCc1ncc2c(n1)n(C)c(=O)n2C(=O)N1CC(Oc2ccccc2CC)C1 [Example 629]	48	6.98	–	–
